Experimental data taken from patent publication US12077503B2, “Substituted cyclic amides and their use as herbicides” (FMC CORPORATION, priority 2015, dated 2024).

Assays:
Assay type in all cases: in vivo
rice (Oryra sativa) = test: Test B flooded paddy test; settings: Flood, 0 to 100 scale where 0 is no effect and 100 is complete control, 13 to 15 d
Procedure, shortened: (§1)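 Percent control, visually estimated after 13–15 d in the greenhouse on a 0–100 basis, compares treated pots with untreated ones; compound was put into paddy water 3 cm above the soil when plants had two leaves.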

[1] = tested on: ducksalad (Heteranthera limosa); test: Test B flooded paddy test; settings: Flood, 0 to 100 scale where 0 is no effect and 100 is complete control, 13 to 15 d
Procedure, shortened: as §1

[2] = tested on: sedge, umbrella (small-flower umbrella sedge, Cyperus difformis); test: Test B flooded paddy test; settings: Flood, 0 to 100 scale where 0 is no effect and 100 is complete control, 13 to 15 d
Procedure, shortened: as §1

[3] = tested on: barnyardgrass (Echinochloa crus-galli); test: Test B flooded paddy test; settings: Flood, 0 to 100 scale where 0 is no effect and 100 is complete control, 13 to 15 d
Procedure, shortened: as §1

[4] = tested on: giant foxtail (Setaria faberii); test: Test A postemergence
Procedure, shortened: (§2)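 Visual injury, scored on a 0–100 scale relative to untreated controls, was recorded about 10 d after application. Treatments were a preemergence soil spray over planted seeds or a postemergence spray on plants at the one- to two-leaf stage, 2 to 10 cm tall, all in loam soil–sand blend in the greenhouse.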

[5] = tested on: ryegrass, Italian (Italian ryegrass, Lolium multiflorum); test: Test A postemergence
Procedure, shortened: as §2

[6] = tested on: pigweed (Amaranthus retroflexus); test: Test A postemergence
Procedure, shortened: as §2

[7] = tested on: barnyardgrass (Echinochloa crus-galli); test: Test A postemergence
Procedure, shortened: as §2

[8] = tested on: wheat (Triticum aestivum); test: Test A postemergence
Procedure, shortened: as §2

[9] = tested on: ragweed (common ragweed, Ambrosia elatior); test: Test A postemergence
Procedure, shortened: as §2

[10] = tested on: Galium (catchweed bedstraw, Galium aparine); test: Test A postemergence
Procedure, shortened: as §2

Kochia (Kochia scoparia) [11] = test: Test A postemergence
Procedure, shortened: as §2

corn (Zea mays) = test: Test A postemergence
Procedure, shortened: as §2

[12] = tested on: blackgrass (Alopecurus myosuroides); test: Test A postemergence
Procedure, shortened: as §2

[13] = tested on: giant foxtail (Setaria faberii); test: Test A preemergence
Procedure, shortened: as §2

[14] = tested on: ryegrass, Italian (Italian ryegrass, Lolium multiflorum); test: Test A preemergence
Procedure, shortened: as §2

[15] = tested on: pigweed (Amaranthus retroflexus); test: Test A preemergence
[16] = tested on: barnyardgrass (Echinochloa crus-galli); test: Test A preemergence
Procedure, shortened: as §2

[17] = tested on: ragweed (common ragweed, Ambrosia elatior); test: Test A preemergence
Procedure, shortened: as §2

Kochia (Kochia scoparia) [18] = test: Test A preemergence
Procedure, shortened: as §2

[19] = 125 g ai/ha, postemergence, visual injury rating on 0 to 100 scale (0 no effect, 100 complete control), approx. 10 d
[20] = 500 g ai/ha, postemergence, 0 to 100 scale, 0 no effect, 100 complete control
[21] = Postemergence, 125 g ai/ha, visual injury, 0 to 100 scale (0 no effect, 100 complete control), approx. 10 d
[22] = 125 g ai/ha, preemergence, 0 to 100 scale (0 no effect, 100 complete control)
[23] = Preemergence, 500 g ai/ha, 0 is no effect, 100 is complete control
[24] = 125 g ai/ha, postemergence, visual rating after approx. 10 d, 0 to 100 scale (0 no effect, 100 complete control)
[25] = 500 g ai/ha, postemergence, visual injury, 0 to 100 scale (0 no effect, 100 complete control), approx. 10 d
[26] = Postemergence, 500 g ai/ha, 0 to 100 scale where 0 is no effect and 100 is complete control
[27] = 125 g ai/ha, Preemergence, visual injury after approximately 10 d, 0 to 100 scale where 0 is no effect and 100 is complete control
[28] = 500 g ai/ha, preemergence, 0 to 100 scale, 0 = no effect, 100 = complete control
[29] = Preemergence, 500 g ai/ha, visual injury approx. 10 d

SMILES: O=C1NCC(c2cccc(OCC(F)F)c2)C1C(=O)Nc1cccc(F)c1F (stereo not drawn) [Compound 389]
- Plant response rating, Rice (rice (Oryra sativa); 500 g ai/ha): 15
- Plant response rating, Ducksalad ([1]; 500 g ai/ha): 100
- Plant response rating, Sedge, Umbrella ([2]; 500 g ai/ha): 0
- Plant response rating, Barnyardgrass ([3]; 500 g ai/ha): 60
- Foxtail, Giant plant response rating [4, 19]: 60
- Plant response rating, Foxtail, Giant [4, 20]: 70
- Ryegrass, Italian plant response rating [5, 19]: 0
- Plant response rating, Ryegrass, Italian [5, 20]: 0
- Pigweed plant response rating [6, 19]: 0
- Plant response rating, Pigweed [6, 20]: 20
- Plant response rating, Barnyardgrass [7, 20]: 70
- Plant response rating, Barnyardgrass [7, 21]: 50
- Wheat plant response rating [8, 19]: 0
- Plant response rating, Wheat [8, 20]: 0
- Ragweed plant response rating [9, 19]: 0
- Plant response rating, Ragweed [9, 20]: 0
- Galium plant response rating [10, 19]: 0
- Plant response rating, Galium [10, 20]: 0
- Kochia plant response rating (Kochia (Kochia scoparia) [11]; [19]): 0
- Plant response rating, Kochia (Kochia (Kochia scoparia) [11]; [20]): 0
- Corn plant response rating (corn (Zea mays); [19]): 30
- Plant response rating, Corn (corn (Zea mays); [20]): 50
- Plant response rating, Blackgrass [12, 20]: 0
- Plant response rating, Blackgrass [12, 21]: 0
- Plant response rating, Foxtail, Giant [13, 22]: 80
- Foxtail, Giant plant response rating (0 to 100 scale) [13, 23]: 90
- Plant response rating, Ryegrass, Italian [14, 22]: 0
- Ryegrass, Italian plant response rating (0 to 100 scale) [14, 23]: 0
- Plant response rating, Pigweed [15, 22]: 0
- Pigweed plant response rating (0 to 100 scale) [15, 23]: 0
- Plant response rating, Barnyardgrass [16, 22]: 70
- Barnyardgrass plant response rating (0 to 100 scale) [16, 23]: 70
- Plant response rating, Ragweed [17, 22]: 0
- Ragweed plant response rating (0 to 100 scale) [17, 23]: 0
- Plant response rating, Kochia (Kochia (Kochia scoparia) [18]; [22]): 0
- Kochia plant response rating (0 to 100 scale) (Kochia (Kochia scoparia) [18]; [23]): 0

SMILES: Cc1cc(C2CNC(=O)C2C(=O)Nc2ccccc2F)cs1 (stereo not drawn) [Compound 630]
- Plant response rating, Rice (rice (Oryra sativa); 250 g ai/ha): 0
- Plant response rating, Ducksalad ([1]; 250 g ai/ha): 95
- Plant response rating, Sedge, Umbrella ([2]; 250 g ai/ha): 0
- Plant response rating, Barnyardgrass ([3]; 250 g ai/ha): 20
- Plant response rating, Foxtail, Giant [4, 24]: 30
- Plant response rating, Foxtail, Giant [4, 25]: 30
- Plant response rating, Ryegrass, Italian [5, 24]: 0
- Plant response rating, Ryegrass, Italian [5, 25]: 0
- Plant response rating, Pigweed [6, 24]: 0
- Plant response rating, Pigweed [6, 25]: 0
- Plant response rating, Barnyardgrass [7, 24]: 80
- Plant response rating, Barnyardgrass [7, 26]: 90
- Plant response rating, Wheat [8, 24]: 0
- Plant response rating, Wheat [8, 25]: 20
- Plant response rating, Ragweed [9, 24]: 0
- Plant response rating, Ragweed [9, 25]: 0
- Plant response rating, Galium [10, 24]: 0
- Plant response rating, Galium [10, 25]: 40
- Plant response rating, Kochia (Kochia (Kochia scoparia) [11]; [24]): 0
- Plant response rating, Kochia (Kochia (Kochia scoparia) [11]; [25]): 0
- Plant response rating, Corn (corn (Zea mays); [24]): 0
- Plant response rating, Corn (corn (Zea mays); [26]): 20
- Plant response rating, Blackgrass [12, 24]: 0
- Plant response rating, Blackgrass [12, 26]: 20
- Plant response rating, Foxtail, Giant [13, 27]: 80
- Plant response rating, Foxtail, Giant [13, 28]: 90
- Plant response rating, Ryegrass, Italian [14, 27]: 0
- Plant response rating, Ryegrass, Italian [14, 28]: 20
- Plant response rating, Pigweed [15, 27]: 0
- Plant response rating, Pigweed [15, 28]: 0
- Plant response rating, Barnyardgrass [16, 27]: 90
- Plant response rating, Barnyardgrass [16, 28]: 90
- Plant response rating, Ragweed [17, 27]: 0
- Plant response rating, Ragweed [17, 28]: 30
- Plant response rating, Kochia (Kochia (Kochia scoparia) [18]; [27]): 0
- Plant response rating, Kochia (Kochia (Kochia scoparia) [18]; [28]): 50

SMILES: C#Cc1cccc(C2CNC(=O)C2C(=O)Nc2cccc(F)c2F)c1 (racemic) [Compound 677]
- Plant response rating, Rice (rice (Oryra sativa); 250 g ai/ha): 0
- Plant response rating, Ducksalad ([1]; 250 g ai/ha): 100
- Plant response rating, Sedge, Umbrella ([2]; 250 g ai/ha): 0
- Plant response rating, Barnyardgrass ([3]; 250 g ai/ha): 30
- Plant response rating, Foxtail, Giant [4, 24]: 20
- Plant response rating, Foxtail, Giant [4, 25]: 70
- Plant response rating, Ryegrass, Italian [5, 24]: 0
- Plant response rating, Ryegrass, Italian [5, 25]: 30
- Plant response rating, Pigweed [6, 24]: 0
- Plant response rating, Pigweed [6, 25]: 20
- Plant response rating, Barnyardgrass [7, 24]: 80
- Plant response rating, Barnyardgrass [7, 25]: 90
- Plant response rating, Wheat [8, 24]: 0
- Plant response rating, Wheat [8, 25]: 20
- Plant response rating, Ragweed [9, 24]: 0
- Plant response rating, Ragweed [9, 25]: 30
- Plant response rating, Galium [10, 24]: 0
- Plant response rating, Galium [10, 25]: 40
- Plant response rating, Kochia (Kochia (Kochia scoparia) [11]; [24]): 0
- Plant response rating, Kochia (Kochia (Kochia scoparia) [11]; [25]): 40
- Plant response rating, Corn (corn (Zea mays); [24]): 0
- Plant response rating, Corn (corn (Zea mays); [25]): 40
- Plant response rating, Blackgrass [12, 24]: 0
- Plant response rating, Blackgrass [12, 25]: 20
- Plant response rating, Foxtail, Giant [13, 27]: 40
- Plant response rating, Foxtail, Giant [13, 28]: 90
- Plant response rating, Ryegrass, Italian [14, 27]: 20
- Plant response rating, Ryegrass, Italian [14, 28]: 40
- Plant response rating, Pigweed [15, 27]: 0
- Plant response rating, Pigweed [15, 28]: 0
- Plant response rating, Barnyardgrass [16, 27]: 60
- Plant response rating, Barnyardgrass [16, 28]: 90
- Plant response rating, Ragweed [17, 27]: 0
- Plant response rating, Ragweed [17, 28]: 0
- Plant response rating, Kochia (Kochia (Kochia scoparia) [18]; [27]): 20
- Plant response rating, Kochia (Kochia (Kochia scoparia) [18]; [28]): 40

SMILES: O=C1NCC(c2cc(Cl)sc2Cl)C1C(=O)Nc1cccc(F)c1F (stereo not drawn) [Compound 601]
- Plant response rating, Rice (rice (Oryra sativa); 250 g ai/ha): 0
- Plant response rating, Ducksalad ([1]; 250 g ai/ha): 75
- Plant response rating, Sedge, Umbrella ([2]; 250 g ai/ha): 0
- Plant response rating, Barnyardgrass ([3]; 250 g ai/ha): 40
- Plant response rating, Foxtail, Giant [4, 24]: 20
- Plant response rating, Foxtail, Giant [4, 26]: 50
- Plant response rating, Ryegrass, Italian [5, 24]: 0
- Plant response rating, Ryegrass, Italian [5, 26]: 0
- Plant response rating, Pigweed [6, 24]: 0
- Plant response rating, Pigweed [6, 26]: 0
- Plant response rating, Barnyardgrass [7, 24]: 20
- Plant response rating, Barnyardgrass [7, 26]: 70
- Plant response rating, Wheat [8, 24]: 0
- Plant response rating, Wheat [8, 26]: 20
- Plant response rating, Ragweed [9, 24]: 0
- Plant response rating, Ragweed [9, 26]: 0
- Plant response rating, Galium [10, 24]: 0
- Plant response rating, Galium [10, 26]: 0
- Plant response rating, Kochia (Kochia (Kochia scoparia) [11]; [24]): 0
- Plant response rating, Kochia (Kochia (Kochia scoparia) [11]; [26]): 0
- Plant response rating, Corn (corn (Zea mays); [24]): 0
- Plant response rating, Corn (corn (Zea mays); [26]): 20
- Plant response rating, Blackgrass [12, 24]: 0
- Plant response rating, Blackgrass [12, 26]: 0
- Plant response rating, Foxtail, Giant [13, 27]: 70
- Foxtail, Giant plant response rating (0 to 100 scale, 0 is no effect, 100 is complete control) [13, 29]: 80
- Plant response rating, Ryegrass, Italian [14, 27]: 0
- Ryegrass, Italian plant response rating (0 to 100 scale, 0 is no effect, 100 is complete control) [14, 29]: 0
- Plant response rating, Pigweed [15, 27]: 0
- Pigweed plant response rating (0 to 100 scale, 0 is no effect, 100 is complete control) [15, 29]: 0
- Plant response rating, Barnyardgrass [16, 27]: 60
- Barnyardgrass plant response rating (0 to 100 scale, 0 is no effect, 100 is complete control) [16, 29]: 80
- Plant response rating, Ragweed [17, 27]: 0
- Ragweed plant response rating (0 to 100 scale, 0 is no effect, 100 is complete control) [17, 29]: 0
- Plant response rating, Kochia (Kochia (Kochia scoparia) [18]; [27]): 0
- Kochia plant response rating (0 to 100 scale, 0 is no effect, 100 is complete control) (Kochia (Kochia scoparia) [18]; [29]): 0
